In ChEMBL document CHEMBL4699508, “Bioactivity-Guided Discovery of Human Carboxylesterase Inhibitors from the Roots of Paeonia lactiflora” (J Nat Prod, 2020):

Columns and labels:
Homo sapiens = organism: Homo sapiens; assay: Selectivity ratio of IC50 for inhibition of CES2A1 in human liver microsomes to IC50 for CES1A1 in human liver microsomes; conditions: Microsome
Liver carboxylesterase 1 = target: T1, Liver carboxylesterase 1 (Homo sapiens, UniProt P23141); assay: Inhibition of CES1A1 in human liver microsomes using D-luciferin methyl ester as substrate preincubated for 10 mins followed by substrate addition and measured after 10 mins by fluorescence assay
T1 sequence (P23141 whole entry): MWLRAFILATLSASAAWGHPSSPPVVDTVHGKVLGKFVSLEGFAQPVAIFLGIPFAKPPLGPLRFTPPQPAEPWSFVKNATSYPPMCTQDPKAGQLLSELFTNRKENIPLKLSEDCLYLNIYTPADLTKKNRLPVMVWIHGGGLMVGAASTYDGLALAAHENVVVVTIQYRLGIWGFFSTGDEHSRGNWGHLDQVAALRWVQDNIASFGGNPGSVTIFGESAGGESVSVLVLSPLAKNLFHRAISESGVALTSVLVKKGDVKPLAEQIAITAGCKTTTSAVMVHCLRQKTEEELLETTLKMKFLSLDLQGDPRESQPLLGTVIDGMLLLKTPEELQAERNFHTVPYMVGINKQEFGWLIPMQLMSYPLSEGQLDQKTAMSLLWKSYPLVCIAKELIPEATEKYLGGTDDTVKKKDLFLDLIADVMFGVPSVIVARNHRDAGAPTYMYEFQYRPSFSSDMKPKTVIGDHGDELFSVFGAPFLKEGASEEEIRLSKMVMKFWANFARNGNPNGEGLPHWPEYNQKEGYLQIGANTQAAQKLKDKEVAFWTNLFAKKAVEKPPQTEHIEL

SMILES	Ratio IC50 (Homo sapiens)	IC50 (Liver carboxylesterase 1) [nM]
CC1(C)CC[C@]2(C(=O)O)CC[C@]3(C)C(=CC[C@@H]4[C@@]5(C)CC[C@H](O)C(C)(C)[C@@H]5CC[C@]43C)[C@@H]2C1 [OLEANOLIC_ACID]	30	100
C=C(C)[C@@H]1CC[C@]2(C(=O)O)CC[C@]3(C)[C@H](CC[C@@H]4[C@@]5(C)CC[C@@H]6OC(C)(C)OC[C@@]6(C)[C@@H]5CC[C@]43C)[C@@H]12	30	100
C=C(C)[C@@H]1CC[C@]2(C(=O)O)CC[C@]3(C)[C@H](CC[C@@H]4[C@@]5(C)CC[C@H](O)[C@@](C)(CO)[C@@H]5CC[C@]43C)[C@@H]12	30	100
C[C@H]1[C@H](C)CC[C@]2(C(=O)O)CC[C@]3(C)C(=CC[C@@H]4[C@@]5(C)CC[C@H](O)C(C)(C)[C@@H]5CC[C@]43C)[C@H]12 [URSOLIC ACID]	30	100
CC1(C)CC[C@]2(C)CC[C@]3(C)C(=CC[C@@H]4[C@@]5(C)CCC(=O)C(C)(C)[C@@H]5CC[C@]43C)[C@@H]2C1	–	100
C=C(C)[C@@H]1CC[C@]2(C)CC[C@]3(C)[C@H](CC[C@@H]4[C@@]5(C)CC[C@H](O)C(C)(C)[C@@H]5CC[C@]43C)[C@@H]12 [LUPEOL]	30	100
CC1(C)CC[C@]2(C(=O)O)CC[C@]3(C)C(=CC[C@@H]4[C@@]5(C)CC[C@@H]6OC(C)(C)OC[C@@]6(C)[C@@H]5CC[C@]43C)[C@@H]2C1	30	100
C=C1CC[C@]2(C(=O)O)CC[C@]3(C)C(=CC[C@@H]4[C@@]5(C)CC[C@H](O)[C@@](C)(CO)[C@@H]5CC[C@]43C)[C@@H]2C1	30	100
C=C1CC[C@]2(C(=O)O)CC[C@]3(C)C(=CC[C@@H]4[C@@]5(C)CC[C@@H]6OC(C)(C)OC[C@@]6(C)[C@@H]5CC[C@]43C)[C@@H]2C1	30	100
